Patent US10610538B2, “Pradimicin derivatives for the treatment of diseases caused by kinetoplastids” (KATHOLIEKE UNIVERSITEIT LEUVEN, priority 2013, dated 2020)
In brackets after ≈: the same amount, converted by molar mass. Like-named read-outs stand apart in the source and are kept apart here.

Key:
T. cruzi trypomastigotes = assay: Lysis of T. cruzi trypomastigotes (resazurin); format: cell-based, Trypanosoma cruzi Tulahuen strain C4; settings: 24 h, half-maximal lysis
Protocol: (§1) Activity of pradimicin A (PRM-A) and S (PRM-S) against T. cruzi was studied in epimastigote and trypomastigote forms of T. cruzi Tulahuen strain C4.
(§2) In the case of epimastigote forms, 2×10^5 parasites were seeded in a 96-wells plate (100 μL) and incubated 3 days with different drug concentrations between 0.0625 μg·mL^−1 and 100 μg·mL^−1 in liver infusion tryptose (LIT) medium supplemented with 10% fetal calf serum at 28° C. In the case of trypomastigotes, 1×10^5 parasites were seeded in a 96-well plate (100 μL) and incubated with different drug concentrations between 0.006 μg·mL^−1 and 12.5 μg·mL^−1 for 24 h in RPMI 1640 medium supplemented with 10% FBS, 2 mM L-glutamine, 100 U·mL^−1 penicillin and 100 μg·mL^−1 streptomycin at 37° C. and 5% CO2. Cell viability of epimastigotes and lysis percentage of trypomastigotes were determined by adding 10 μL of resazurin (0.11 mg·mL^−1 in PBS) and measuring fluorescence at 570/590 nm of excitation/emission wavelength after 2 h of incubation using a Spectramax Gemini EM microplate fluorometer (Molecular Devices Cooperation, Sunnyvale, Calif., USA). EC50 or 50% lysis values were defined as the drug concentration required for half-maximal inhibition of the cellular growth rate or half-maximal lysis and were calculated by nonlinear regression analysis.

T. brucei BSF = assay: In vitro growth inhibition of T. brucei bloodstream forms; format: cell-based, Trypanosoma brucei brucei
Protocol: Trypanosoma brucei brucei single-marker bloodstream forms (BSF) (antigenic type 1.2, MITat 1.2, clone 221a) strain 427, harbouring T7 RNA polymerase and the tetracycline repressor (Wirtz et al., 1999) and Trypanosoma brucei rhodesiense EATRO3 ETat1.2 TREU164 (Turner et al., 2004) were used in this study. Bloodstream forms were cultured at 37° C. and 5% CO2 in HMI-9 supplemented with 10% (v/v) or 20% fetal bovine serum, respectively. The non-peptidic CBAs pradimicin A (PRM-A, derived from Actinomadura hibisca) (Oki et al., 1988) and pradimicin S (PRM-S, derived from Actinomadura spinosa strain A A08 51) (Saitoh et al., 1993) were tested for inhibition of parasite growth.

L. donovani amastigotes = assay: In vitro activity against intracellular L. donovani amastigotes in mouse peritoneal macrophages; format: cell-based, Leishmania donovani MHOM/ET/67HU3; settings: 72 h
Protocol: (§3) Activity of pradimicin A (PRM-A) and S (PRM-S) was tested against promastigote and amastigote forms of L. donovani MHOM/ET/67HU3.
To determine activity against the amastigote form, 1×10^5 mouse peritoneal macrophages were seeded in 24-well tissue culture chamber slides using RPMI 1640 medium supplemented with 10% HIFBS, 2 mM L-glutamine, 100 U·mL-1 penicillin and 100 μg·mL^−1 streptomycin. Compounds were added and cells were then infected with late-stage promastigotes at a macrophage/parasite ratio of 1:10. After 8 h of infection at 35° C. and 5% CO2, extracellular parasites were removed by washing with serum-free medium, and infected macrophage cultures were incubated with different CBA concentrations for 72 h in RPMI 1640 medium plus 10% HIFBS at 37° C. with 5% CO2. After that, macrophages were fixed with 2.5% p-formaldehyde in PBS for 30 min at 4° C., permeabilized with 0.1% Triton X-100 in PBS for 30 min, and incubated with Gold antifade reagent plus DAPI in order to detect the intracellular parasites. Drug activity was determined from the percentage of infected cells and from the number of amastigotes per cell in drug-treated versus non-treated cultures.

[1] = system: L. donovani promastigotes; assay: In vitro activity against L. donovani promastigotes (proliferation, cell counting); format: cell-based, Leishmania donovani MHOM/ET/67HU3; settings: 48 h
Protocol: as §3
In the case of the promastigote forms, 2.5×10^4 parasites were incubated in 24-well plates (1 mL) for 48 h at different drug concentrations between 0.391 μg·mL^−1 and 50 μg·mL^−1 in RPMI 1640 modified supplemented with 20% FBS, 2 mM L-glutamine, 100 U·mL^−1 penicillin and 100 μg·mL^−1 of streptomycin. The proliferation was determined by counting the number of cells using a Z1 Coulter counter. EC50 values were calculated by nonlinear regression analysis.

Macrophages = assay: Toxicity in macrophages; format: cell-based, mouse
T. cruzi epimastigotes = assay: In vitro activity against T. cruzi epimastigotes (resazurin viability); format: cell-based, Trypanosoma cruzi Tulahuen strain C4; settings: 3 days
Protocol: as §1, §2

T. b. rhodesiense EATRO3 = assay: In vivo activity of PRM-S in BALB/c mice infected with T. b. rhodesiense EATRO3; settings: for MRD (mean relapse day) / MSD (mean survival day) / cured/infected: BALB/c; for cured/infected: from day 3 post-infection
Excerpt: (§4) In order to establish the trypanocidal capacity of PRM-S, C57BL/6J or BALB/c mice were infected with T. b. brucei 427 or T. b. rhodesiense EATRO3 strains, respectively, and infection was allowed to proceed for 3 days before treatment with PRM-S, one dosage per day for 4 days.
(§5) Female C57BL/6 or BALB/c mice (Jackson Laboratories, Bar Harbor, Me.) were split in groups containing between three and six mice (6-8 weeks old), and infected via intraperitoneal route with 5×10^3 (T. b. brucei strain 427) or 1×10^4 (T. b. rhodesiense EATRO3) trypanosomes, respectively. Different dosages of PRM-S ([…] and 50 mg·kg^−1) were administered once/day intraperitoneally (200 μL) for 4 days starting on the third day post-infection, in 0.5% w/v hydroxypropylmethylcellulose (HPMC), 0.4% v/v Tween 80 and 0.5% v/v benzyl alcohol used as dosage formulation. One group of mice in each case was also infected and treated with the vehicle as control, Parasitaemia was monitored daily in a haematocytometer under a microscope from the third day post-infection and after tail blood extraction.

T. b. brucei 427 = assay: In vivo activity of PRM-S in C57BL/6J mice infected with T. b. brucei 427; settings: for MRD (mean relapse day) / MSD (mean survival day) / cured/infected: C57BL/6J; for cured/infected: from day 3 post-infection
Excerpt: as §4, §5

[2] = read-out: EC50 (% Lysis) T. cruzi
[3] = 4 × 25 mg·kg^−1 i.p., listed as PRMS
[4] = 4 × 50 mg·kg^−1 i.p., listed as PRMS

Row | SMILES | EC50 (T. brucei BSF) [µM] | EC50 (μg · mL^−1) (T. brucei BSF) [µg/mL] | EC50 (L. donovani amastigotes) [µM] | EC50 (μg · mL^−1) (L. donovani amastigotes) [µg/mL] | EC50 [1] [µM] | EC50 (μg · mL^−1) [1] [µg/mL] | EC50 (Macrophages) [µM] | EC50 (μg · mL^−1) (Macrophages) [µg/mL] | EC50 (T. cruzi epimastigotes) [µM] | EC50 (μg · mL^−1) (T. cruzi epimastigotes) [µg/mL] | EC50 (% Lysis) T. cruzi (T. cruzi trypomastigotes) [µg/mL] | EC50 (T. cruzi trypomastigotes; [2]) [µM] | other results
1 | O=C(Cn1ccnc1[N+](=O)[O-])NCc1ccccc1 [Benznidazole, reference compound] |  |  |  |  |  |  |  |  |  |  |  |  | EC50 (T. cruzi trypomastigotes; Trypanosoma cruzi, read-out: EC50 (% Lysis) T. cruzi): 5.2 ± 0.2 µM; EC50 (T. cruzi trypomastigotes; Trypanosoma cruzi, read-out: EC50 (% Lysis) T. cruzi (μg · mL^−1)): 1.35 ± 0.05 µg/mL
2 | CN[C@@H]1[C@H](O[C@@H]2OC[C@@H](O)[C@H](O)[C@H]2O)[C@@H](O)[C@H](O[C@H]2c3cc(C)c(C(=O)N[C@H](C)C(=O)O)c(O)c3-c3c(cc4c(c3O)C(=O)c3cc(OC)cc(O)c3C4=O)[C@@H]2O)O[C@@H]1C [PRM-A, pradimicin A] | 3.8 ± 0.05 | 3.20 ± 0.04 (≈ 3.81 µM) | 0.8 ± 0.1 | 0.7 ± 0.1 (≈ 0.833 µM) | 21.4 ± 0.8 | 18.0 ± 0.7 (≈ 21.4 µM) | > 100 | >100 | 28.1 ± 1.3 | 23.6 ± 1.1 (≈ 28.1 µM) | 1.0 ± 0.3 (≈ 1.19 µM) | 1.2 ± 0.3 | 
3 | CN[C@@H]1[C@H](O[C@@H]2O[C@H](CO)[C@@H](O)[C@H](OS(=O)(=O)O)[C@H]2O)[C@@H](O)[C@H](O[C@@H]2c3cc(C)c(C(=O)N[C@H](CO)C(=O)O)c(O)c3-c3c(cc4c(c3O)C(=O)c3cc(OC)cc(O)c3C4=O)[C@H]2O)O[C@@H]1C [PRM-FS, Pradimicin-FS] | 13.5 ± 0.8 | 13.0 ± 0.7 (≈ 13.4 µM) |  |  | 50.8 ± 2.1 | 49.1 ± 2.0 (≈ 50.8 µM) |  |  |  |  |  |  | 
4 | CN[C@@H]1[C@H](O[C@@H]2O[C@H](CO)[C@@H](O)[C@H](OS(=O)(=O)O)[C@H]2O)[C@@H](O)[C@H](O[C@H]2c3cc(C)c(C(=O)N[C@H](C)C(=O)O)c(O)c3-c3c(cc4c(c3O)C(=O)c3cc(OC)cc(O)c3C4=O)[C@@H]2O)O[C@@H]1C [PRM-S, pradimicin S] | 6.44 ± 0.08 | 5.85 ± 0.08 (≈ 6.15 µM) | 2.3 ± 0.3 | 2.2 ± 0.2 (≈ 2.31 µM) | 22.9 ± 1.9 | 21.8 ± 1.9 (≈ 22.9 µM) | > 100 | >100 | 19 ± 2.6 | 17.3 ± 2.4 (≈ 18.2 µM) | 1.2 ± 0.3 (≈ 1.26 µM) | 1.4 ± 0.3 | mice in which parasitaemia appeared subsequently (relapse) (T. b. rhodesiense EATRO3; 25 mg·kg^−1): three of the five mice; MRD (mean relapse day) (T. b. rhodesiense EATRO3; 4 × 25 mg·kg^−1 i.p.): 10.7 ± 0.6 days; MSD (mean survival day) (T. b. rhodesiense EATRO3; 4 × 25 mg·kg^−1 i.p.): 44.4 ± 41.7 days; MRD (mean relapse day) (T. b. rhodesiense EATRO3; [3]): 10.7 ± 0.6 days; MSD (mean survival day) (T. b. rhodesiense EATRO3; [3]): 44.4 ± 41.7 days; cured/infected (T. b. rhodesiense EATRO3; 4 × 25 mg·kg^−1 i.p.): 2/5; MSD (mean survival day) (T. b. rhodesiense EATRO3; 4 × 50 mg·kg^−1 i.p.): > 90 days; MSD (mean survival day) (T. b. rhodesiense EATRO3; [4]): >90 days; cured/infected (T. b. rhodesiense EATRO3; 4 × 50 mg·kg^−1 i.p.): 5/5; parasitaemia (T. b. rhodesiense EATRO3; both dosages (25 and 50 mg·kg^−1), after the first administration): drastically reduced; MRD (mean relapse day) (T. b. brucei 427; 4 × 25 mg·kg^−1 i.p.): 10.7 ± 0.6 days; MSD (mean survival day) (T. b. brucei 427; 4 × 25 mg·kg^−1 i.p.): 18.0 ± 7 days; MRD (mean relapse day) (T. b. brucei 427; [3]): 10.7 ± 0.6 days; MSD (mean survival day) (T. b. brucei 427; [3]): 18.0 ± 7 days; cured/infected (T. b. brucei 427; 4 × 25 mg·kg^−1 i.p.): 0/3; MSD (mean survival day) (T. b. brucei 427; 4 × 50 mg·kg^−1 i.p.): > 90 days; MSD (mean survival day) (T. b. brucei 427; [4]): >90 days; cured/infected (T. b. brucei 427; 4 × 50 mg·kg^−1 i.p.): 6/6; parasitaemia (T. b. brucei 427; after the first dose of 50 mg·kg^−1): dramatic decrease of parasitaemia; parasitaemia (T. b. brucei 427; after the third dose of 25 mg·kg^−1): dramatic decrease of parasitaemia
